The experiment deals with T1, PTP1B (Homo sapiens, UniProt P18031).
T1 sequence (P18031 1-435): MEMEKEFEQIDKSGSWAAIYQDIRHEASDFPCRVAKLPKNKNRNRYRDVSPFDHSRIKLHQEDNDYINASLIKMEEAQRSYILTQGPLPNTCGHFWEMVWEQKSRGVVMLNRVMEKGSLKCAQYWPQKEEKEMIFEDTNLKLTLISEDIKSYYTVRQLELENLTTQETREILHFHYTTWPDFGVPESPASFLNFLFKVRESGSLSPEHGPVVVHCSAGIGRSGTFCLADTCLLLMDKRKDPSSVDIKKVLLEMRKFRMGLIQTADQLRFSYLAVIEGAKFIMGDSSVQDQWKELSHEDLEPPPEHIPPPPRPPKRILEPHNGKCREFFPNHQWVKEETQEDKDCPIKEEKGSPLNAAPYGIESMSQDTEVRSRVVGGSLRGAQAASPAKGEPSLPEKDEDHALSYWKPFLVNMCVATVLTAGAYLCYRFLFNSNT
Briefly: p-NPP dephosphorylation end-point assay at […] nm, […] compound. It counts as biochemical. The conditions noted are these: read-out: % inhibition at 10 μmol/L.

Take `COc1c(O)ccc(/C=C/C(=O)O)c1SC[C@@H](O)C(=O)O` [compound 1, (S)-2-(2-carboxyl-2-hydroxyethylthio)-ferulic acid]: the inhibition at 10 µM was 19.6%.

The values above are taken from article PMC6147803 (Acta Pharmaceutica Sinica. B, 2018).
